Measurements published in patent publication US6048712A, “Process for producing α-monoglucosyl hesperidin-rich substance” (Kabushiki Kaisha Hayashibara, priority 1997, dated 2000).

Experiments:
[1] = Dissolution and crystallization behaviour in lower alcohols; assay type: physicochemical; details: heated lower alcohols, then cooled below ambient temperature, for example 15-25° C.
[2] = cited from earlier work
[3] = cited from earlier work; remark: listed apart in the source

Compound: COc1ccc(C2CC(=O)c3c(O)cc(O[C@@H]4O[C@H](CO)[C@@H](O)[C@H](O)[C@H]4O)cc3O2)cc1O (stereo partly drawn) [β-monoglucosyl hesperetin, 7-O-β-monoglucosyl hesperetin]
- solubility and crystallization in lower alcohols [1]: easily dissolves in lower alcohols and does not substantially crystallize even when the alcohols are cooled down to temperatures below ambient temperature

Compound: COc1ccc([C@@H]2CC(=O)c3c(O)cc(O[C@@H]4O[C@H](CO[C@@H]5O[C@@H](C)[C@H](O)[C@@H](O)[C@H]5O)[C@@H](O)[C@H](O)[C@H]4O)cc3O2)cc1O [Hesperidin]
- solubility in water ([2]; ambient temperature, about one gram in 50 1 water): about 0.002 w/v %
- solubility in words ([2]; aqueous alkaline solutions, water and acids): dissolves in aqueous alkaline solutions but not substantially in water and acids

Compound: COc1ccc([C@@H]2CC(=O)c3c(O)cc(O)cc3O2)cc1O [hesperetin, 3',5,7-trihydroxy-4'-metoxyflavanone]
- water solubility [3]: substantially water-insoluble

Compound: COc1ccc(C2CC(=O)c3c(O)cc(O[C@@H]4O[C@H](CO[C@@H]5O[C@@H](C)[C@H](O)[C@@H](O)[C@H]5O)[C@@H](O[C@H]5O[C@H](CO)[C@@H](O)[C@H](O)[C@H]5O)[C@H](O)[C@H]4O)cc3O2)cc1O (stereo partly drawn) [α-monoglucosyl hesperidin]
- solubility and crystallization in lower alcohols [1]: easily dissolves in heated lower alcohols but easily crystallizes therein when the alcohols are cooled down to temperatures below ambient temperature
